Values of other authors, collected in patent US20230381275A1, “MUSCULAR FUNCTION IMPROVING AGENT FOR SKELETAL MUSCLE OF WHICH FUNCTION IS DEGRADED DUE TO AGING” (OSAKA UNIVERSITY, priority 2020, published 2023).

System: fibroblasts
Conditions: see Patent Document 1; cited from earlier work
In the case of “fragment of osteopontin having SVVYGLR (SEQ ID No.: 1) at the C-terminus: thrombin-cleaved fragment of human osteopontin, or a portion thereof, having the sequence SVVYGLR at the C-terminus”, the “type III collagen production-promoting effect / type III collagen secretion” value is listed as “effect equivalent to type III collagen production-promoting effect of SVVYGLR”.

System: not given
Conditions: relative to SVVYGLR (SEQ ID NO.: 1); earlier work of the inventors; cited from earlier work
In the case of SVVFGLR [SEQ ID No.: 2], the angiogenic effect is given as “maintained”.
For SVVWGLR [SEQ ID No.: 3], the angiogenic effect is listed as “maintained”.
For SVVYGL [SEQ ID NO.: 4], the angiogenic effect is given as “maintained”.
For SVVYGLRG [SEQ ID NO.: 10], the angiogenic effect is listed as “maintained”.
For VVYGLR [SEQ ID NO.: 5], the angiogenic effect is given as “maintained”.
